Experimental findings from publication PMC3164168 (PLoS ONE, 2011) are described below.

In data set [1] the test system is pp28-luciferase Towne CMV. As to the kind of experiment: microbe, parasite or virus in culture. Type of data set: cell-based, human cytomegalovirus. To be noted: for inhibition of late pp28 gene expression (luciferase activity): 72 hpi; for difference in SI versus parent alcohol: 838 vs 606, 832-4 vs 760; for EC50: Human betaherpesvirus 5; for SI (selectivity index, ratio of CC50 to EC50): CC50 in HFF / anti-CMV EC50. The source says: The pp28-luciferase Towne strain was constructed as previously described. Briefly, the recombinant virus, which expresses luciferase under the control of UL99 (pp28) late promoter was generated by insertion of the reporter gene between the US9 and US10 open reading frames (ORFs) in the Towne genome. […] The ganciclovir (GCV)-resistant strain was obtained from a patient with CMV disease. […] This clinical isolate was provided by the clinical virology laboratory with no identifiers that can link to a specific subject. The Johns Hopkins Office of Human Subject Research Institutional Review Board determined that this research qualified for an exemption.
(§1) Human Foreskin Fibroblasts (HFF) passage 12–16 (ATCC, CRL-2088™) were grown in Dulbecco's Modified Eagle Medium (DMEM) containing 10% fetal bovine serum (Gibco, Carlsbad, CA) in a 5% CO2 incubator at 37°C and used for infections with pp28-luciferase Towne CMV or the GCV-resistant strain. One day prior to infection with the pp28-luciferase, 4×10^4 HFF cells were seeded on each well of 24-well tissue culture plates. Infection was carried out at multiplicity of infection of 1 PFU/cell (MOI = 1). Following 90 minute adsorption, media containing virus was removed and replaced by DMEM with 4% fetal bovine serum (Gibco, Carlsbad, CA) containing anti-viral compounds. The concentration of each compound was calculated and adjusted by volume such that it was constant throughout the experiment.
(§2) Infected and treated HFF cells were collected 72 hpi and washed once with PBS. The lysates were assayed for luciferase and cell viability using a Luciferase Assay Kit (Promega, Madison, WI) and CellTiter-Glo Luminescent Cell Viability Assay Kit, respectively, on GloMax®-Multi+ Detection System (Promega) according to manufacturer's instructions.

A short description of data set [2]: CellTiter-Glo Luminescent Cell Viability assay in HFF. The settings on record: human. Type of data set: cell-based. The method, then: as §1, §2
Background: In ATP-based viability assays light output follows the ATP content of the culture.

Another data set relates to HFF. Described as above. The data set is classed as cell-based. How it is done: as §1, §2
For data set [3], the system named is GCV-resistant CMV strain (UL97 mutation H520Q). As to the kind of experiment: Plaque reduction assay, GCV-resistant CMV strain. The data set is classed as cell-based, human cytomegalovirus. To be noted: for inhibition of plaque formation, GCV-resistant CMV strain: 0.1 µM, plaques counted 21 days after infection. The source says:
The pp28-luciferase Towne strain was constructed as previously described. Briefly, the recombinant virus, which expresses luciferase under the control of UL99 (pp28) late promoter was generated by insertion of the reporter gene between the US9 and US10 open reading frames (ORFs) in the Towne genome. […] We have recently reported that the pp28-luciferase reporter system is sensitive, reproducible and highly correlates with plaque reduction. The ganciclovir (GCV)-resistant strain was obtained from a patient with CMV disease. […] This clinical isolate was provided by the clinical virology laboratory with no identifiers that can link to a specific subject. The Johns Hopkins Office of Human Subject Research Institutional Review Board determined that this research qualified for an exemption.
Human lung fibroblasts (HEL) passage 8–12 (ATCC, CCL-137™) were grown in DMEM containing 10% fetal bovine serum. One day prior to infection, 3×10^5 cells were seeded on each well of 12-well tissue culture plates. GCV-resistant CMV was diluted in DMEM to a desired concentration which gave around 100 plaques per well and added to each well in duplicates. Plates were incubated for 90 minutes with shaking every 10 min; thereafter drugs were added and a methylcellulose overlay applied to each well. After incubation for 21 days, cells were stained with crystal violet and plaques were counted under microscope at 40× magnification.

The subject of data set [4] is HeLa (cervical adenocarcinoma). Nature of the data set: MTT cancer cell growth assay, HeLa. Type of data set: cell-based, human. To be noted: for CC50: read-out: CC50 HeLa. The method, then:
(§3) HeLa (Human Cervical Adenocarcinoma), HCT116 (Human Colorectal Carcinoma) and 1205Lu (Human Melanoma) cells (all from ATCC) were maintained in DMEM containing 10% fetal bovine serum. 12–16 hours prior to drug treatment, 3×10^3 to 5×10^3 cells were seeded on each well of 96-well tissue culture plates. Drugs were diluted in DMEM containing 10% fetal bovine serum and applied to the cells. 72 hours after drug treatment, 20 µl of MTT solution (5 mg/ml in PBS) was added into each well, followed by shaking the plates at 150 rpm for 5 minutes and an incubation of 4 hours (37°C, 5% CO2). Media was removed, plates dried and each well was resuspended in 100 µl MTT formazan/DMSO. The absorbance of each well was recorded at 560 nm on GloMax®-Multi+ Detection System (Promega).

The next data set has as its system 1205Lu (melanoma). As to the kind of experiment: MTT cancer cell growth assay, 1205Lu. The data set is classed as cell-based, human. The settings on record: for CC50: read-out: CC50 1205Lu. How it is done: as §3
Data set [5] has as its system HCT116 (colorectal carcinoma). As to the kind of experiment: MTT cancer cell growth assay, HCT116. The settings on record: for CC50: read-out: CC50 HCT116. Type of data set: cell-based, human. The method, then:
as §3

Where [6] appears, read: Homo sapiens, HeLa, MTT 72 hr after treatment.
[7] abbreviates: Homo sapiens, 1205Lu, MTT 72 hr after treatment.
[8] abbreviates: Homo sapiens, HCT-116, MTT 72 hr after treatment.
Setting [9] is: HFF, 72 h, measured at 1 µM to 100 µM, read-out: CC50.

Molecules are shown by their SMILES. Entries after “also recorded” stand apart in the source; their conditions may differ. Read-outs that look alike come from different tables or passages of the source.

For `CC1CCC2C(C)C(CC(CSc3cccc(COC(=O)N(C)C)c3)CC3OC4OC5(C)CCC6C(C)CCC(C3C)C46OO5)OC3OC4(C)CCC1C32OO4` (centres unmarked) [800-3, Dimer isobu-SPh-3-CH2OC(O)NMe2], the “inhibition of late pp28 gene expression (luciferase activity)” value (“inhibition of late pp28 gene expression” below) in data set [1] (0.1 µM) is recorded as “not active”; in data set [1] (0.3 µM), “active”.
For `CC1CCC2C(C)C(CC(CSc3ccc(COC(=O)N(C)C)cc3)CC3OC4OC5(C)CCC6C(C)CCC(C3C)C46OO5)OC3OC4(C)CCC1C32OO4` (centres unmarked) [800-4, Dimer isobu-SPh-4-CH2OC(O)NMe2], the “inhibition of late pp28 gene expression” value in data set [1] (0.1 µM) was “not active”; in data set [1] (0.3 µM) it was “active”.
Turning to `CC1CCC2C(C)C(CC(CC3OC4OC5(C)CCC6C(C)CCC(C3C)C46OO5)CS(=O)(=O)c3cccc(COC(=O)N(C)C)c3)OC3OC4(C)CCC1C32OO4` (centres unmarked) [832-3, Dimer isobu-SO2Ph-3-CH2OC(O)NMe2], the “inhibition of late pp28 gene expression” value in data set [1] (0.1 µM) is “not active”; in data set [1] (0.3 µM), “active”.
Take `CC1CCC2C(C)C(CC(CC3OC4OC5(C)CCC6C(C)CCC(C3C)C46OO5)CS(=O)(=O)c3ccc(COC(=O)N(C)C)cc3)OC3OC4(C)CCC1C32OO4` (centres unmarked) [832-4, Dimer isobu-SO2Ph-4-CH2OC(O)NMe2]: the “effectiveness in CMV inhibition versus monomer 551” value in data set [1] is given as “at least 150 fold”. Besides, the “inhibition of late pp28 gene expression” value in data set [1] (0.1 µM) was “highly inhibitory”. Besides, the “difference in SI versus parent alcohol” value in data set [1] is listed as 30 fold. The response in data set [1] was half-maximal at 0.07 ± 0.004 µM (EC50). Besides, the 50% cytotoxic concentration (CC50) (usually the concentration at which the toxic effect on the cells reaches its halfway point) at 72 h in data set [2] was found to be 57.5 ± 2.9 µM. Further, in the data set on HFF, the “cellular toxicities at concentrations of complete CMV inhibition” value was “not observed”. In data set [3], the “inhibition of plaque formation, GCV-resistant CMV strain” value was “fully inhibited”. Moreover, the CC50 is 0.27 ± 0.03 µM in data set [4] (setting [6]), 0.13 ± 0.007 µM in the data set on 1205Lu (melanoma) (setting [7]) and 0.07 ± 0.006 µM in data set [5] (setting [8]).
On to `C[C@H]1[C@@H](CCC(=O)Nc2ccc(F)cc2)O[C@@H]2OC3(C)CC[C@H]4[C@H](C)CC[C@@H]1[C@@]24OO3` [Artefanilide], for which the CC50 was 44.9 ± 3.4 µM with HFF, > 50 µM in data set [4] (MTT 72 hr after treatment), > 50 µM in the data set on 1205Lu (melanoma) (MTT 72 hr after treatment) and 40 ± 7.9 µM in data set [5] (MTT 72 hr after treatment).
Take `Nc1nc(O)c2ncn(COC(CO)CO)c2n1` [GCV, Ganciclovir, reference compound]: the “inhibition of late pp28 gene expression” value in data set [1] (0.1 µM) was “no inhibition at all”. Further, the “SI (selectivity index, ratio of CC50 to EC50)” value in data set [1] was found to be 96±14. The EC50 – broadly, the concentration at which the effect is half-maximal – in data set [1] was 2.7 ± 0.1 µM; in data set [3] (Human betaherpesvirus 5, read-out: EC50 of GCV for the GCV-resistant strain), 7.6 µM. The cytotoxic concentration (CC50) at 72 h in data set [2] (setting [9]) worked out at 247 ± 33.4 µM. For the same molecule, the “plaque formation, GCV-resistant CMV strain” value in data set [3] (GCV at 5 µM, 21 days) is reported as “obvious resistance”. In addition, the CC50 (in data set [4] (setting [6]); in the data set with 1205Lu (melanoma) (setting [7]); in data set [5] (setting [8])) was > 50 µM in each case.
With `C[C@H]1[C@H](OC(=O)CCC(=O)O)O[C@@H]2O[C@@]3(C)CC[C@H]4[C@H](C)CC[C@@H]1[C@@]24OO3` [artesunate, Artesunate, reference compound], in data set [1], the “SI (selectivity index, ratio of CC50 to EC50)” value turned out to be 11±0.9. This molecule also returned an EC50 in data set [1] of 6.6 ± 0.4 µM. Further, the CC50 at 72 h in data set [2] (setting [9]) came to 71.7 ± 4 µM. Besides, the half-maximal cytotoxic concentration (CC50) amounted to 7.1 ± 0.4 µM in data set [4] (setting [6]), 42 ± 2.4 µM in the data set on 1205Lu (melanoma) (setting [7]) and 11.3 ± 0.6 µM in data set [5] (setting [8]).
For `CC1CCC2C(C)C(CCCS(=O)(=O)c3ccc(COC(=O)N(C)C)cc3)OC3OC4(C)CCC1C32OO4` (centres unmarked) [compound 551, Art-PrSO2Ph-4-CH2OC(O)NMe2], in data set [1] (1 µM), the “inhibition of late pp28 gene expression” value is “did not”.
On to `CC1CCC2C(C)C(CC(CO)CC3OC4OC5(C)CCC6C(C)CCC(C3C)C46OO5)OC3OC4(C)CCC1C32OO4` (centres unmarked) [compound 606, Dimer isobu-OH], for which the “SI (selectivity index, ratio of CC50 to EC50)” value in data set [1] is recorded as 292±21. Moreover, the EC50 in data set [1] was 0.16 ± 0.008 µM. In addition, it took 48.1 ± 2.6 µM to reach half-maximal cytotoxicity in data set [2] (CC50 at 72 h). Moreover, the 50% cytotoxic concentration (CC50) in data set [4] (setting [6]) stood at 1.06 ± 0.2 µM; with 1205Lu (melanoma) (setting [7]), 4.9 ± 0.04 µM; in data set [5] (setting [8]) it was 0.1 ± 0.001 µM.
Take `CC1CCC2C(C)C(CC(CC3OC4OC5(C)CCC6C(C)CCC(C3C)C46OO5)CS(=O)(=O)c3ccc(CO)cc3)OC3OC4(C)CCC1C32OO4` (centres unmarked) [compound 760, Dimer isobu-SO2Ph-4-CH2OH]: the “SI (selectivity index, ratio of CC50 to EC50)” value in data set [1] is 34.5±2. Moreover, the midpoint of the response in data set [1], the EC50, lay at 0.14 ± 0.008 µM. The molecule also had a half-maximal cytotoxic concentration (CC50) at 72 h in data set [2] of 4.9 ± 0.2 µM. Further, the 50% cytotoxic concentration (CC50) in data set [4] (setting [6]) worked out at 0.56 ± 0.18 µM; with 1205Lu (melanoma) (setting [7]) it was 0.1 ± 0.006 µM; in data set [5] (setting [8]), 0.07 ± 0.005 µM.
Regarding `CC1CCC2C(C)C(CC(COP(=O)(Oc3ccccc3)Oc3ccccc3)CC3OC4OC5(C)CCC6C(C)CCC(C3C)C46OO5)OC3OC4(C)CCC1C32OO4` (centres unmarked) [compound 838, Dimer isobu-OP(O)(OPh)2], in data set [1], the SI versus artesunate came out at 134 fold, the “anti-CMV potency versus artesunate (using EC50 values)” value came out at 165 fold, the “difference in SI versus parent alcohol” value is 5 fold and the half-maximal effective concentration (EC50) was 0.04 ± 0.003 µM. Besides, in data set [1] (0.1 µM), the “inhibition of late pp28 gene expression” value is “highly inhibitory”. Moreover, the CC50 at 72 h in data set [2] (setting [9]) amounted to 55.8 ± 2.8 µM. For the same molecule, the “cellular toxicities at concentrations of complete CMV inhibition” value in the data set with HFF (HFF) is recorded as “not observed”. Also, the “inhibition of plaque formation, GCV-resistant CMV strain” value in data set [3] is given as “fully inhibited; also recorded: highly active”. For the same molecule, the “potency in inhibiting growth versus artesunate, HeLa” value in data set [4] is given as 37 fold. In data set [4] (Homo sapiens, HeLa, 72 h), the CC50 was 0.19 ± 0.08 µM. Moreover, the “potency in inhibiting growth versus artesunate, 1205Lu” value in the data set on 1205Lu (melanoma) is reported as “at least 200 fold”. Besides, the CC50 in the data set on 1205Lu (melanoma) (Homo sapiens, 1205Lu, 72 h) was determined as 0.06 ± 0.002 µM. For the same molecule, the “potency in inhibiting growth versus artesunate, HCT116” value in data set [5] is on record as “at least 200 fold”. Further, in data set [5] (Homo sapiens, HCT-116, 72 h), the CC50 was 0.04 ± 0.005 µM.
